Like-named read-outs stand apart in the source and are kept apart here.
What was measured:
rabbits = assay: In vivo neuromuscular block and cardiovascular side effects, rabbit (Example 8, Table 7); details: for ED50: intravenous dose causing 50% neuromuscular block; for RI (recovery index): spontaneous recovery, 25-75% neuromuscular response; for Onset: time to 80-85% neuromuscular block
[1] = test system: anesthetized rats (evoked responses of anterior tibial muscle); assay: In vivo neuromuscular block and cardiovascular side effects, anesthetized rat (Example 8, Table 3); details: for RI (recovery index): spontaneous recovery, 25-75% neuromuscular response; for Onset: time to 80-85% neuromuscular block
From the text: The neuromuscular blocking activity and other effects (e.g. cardiovascular side effects) of selected agents were investigated on several different experimental animals. Justification for this approach lies in the commonly known fact that the pharmacodynamic and pharmacokinetic properties of these agents are markedly variable from species to species. Therefore, the most important aspects of the projected therapeutic utility of these agents, e.g., neuromuscular blocking potency, onset and duration of action, and side effects cannot be ascertained in “in vitro” preparations or by using only one species of animals.
a) Adult, male albino rats were anesthetized with pentobarbital injected intraperitoneally. The trachea was cannulated for artificial respiration via a small animal respirator. The carotid artery was cannulated for recording blood pressure via a transducer and heart rate by a cardiotachograph on a polygraph. One external jugular vein was cannulated for i.v. drug administration. Neuromuscular function was monitored by electromyography, recording evoked responses from the anterior tibial muscle as a result of supramaximal nerve stimuli consisting of single or “train-of-four” rectangular pulses of 0.1-0.2 msec duration every 10-12 seconds, delivered to the sciatic or common peroneal nerve by a laboratory nerve stimulator. Another mode of stimulation included repeated single stimuli delivered at 0.1 Hz or 1 Hz. […] The agents were dissolved in physiologic saline and injected intravenously at appropriate time intervals. The intensity, onset, and duration of neuromuscular block and its type were determined with each agent. Through administering several doses, the doses corresponding to 50%, 80% and 90% neuromuscular block were determined. All agents were compared with selected standard neuromuscular blocking compounds, e.g. succinylcholine, pancuronium, mivacurium, or rocuronium.
Onset=time in minutes to 80-85% neuromuscular block.
RI=recovery index, minutes, spontaneous recovery, 25-75% neuromuscular response.
VB=vagal block, %, at 80-85% neuromuscular blocking dose.
ΔHR=change in heart rate, %, at 80-85% neuromuscular blocking dose.
ΔBP=change in arterial blood pressure, %, at 80-85% neuromuscular blocking dose.

[2] = test system: anesthetized juvenile pigs; assay: animal or person; assay type: in vivo; details: pig; for ED50: intravenous dose causing 50% neuromuscular block; for RI (recovery index): spontaneous recovery, 25-75% neuromuscular response; for Onset: time to 80-85% neuromuscular block
From the text: Both electromyographic and mechanomyographic responses can be quantified.
The techniques described under a) and b) were employed in other species as needed with the modification that juvenile pigs were initially anesthetized with inhalation of halothane (Table 5) and monkeys were initially sedated with intramuscular ketamine injections prior to inducing and maintaining general anesthesia using pentobarbital and propofol administered intravenously (Table 6).

[3] = rat, intravenous dose causing 50% neuromuscular block
[4] = rat, at 80-85% neuromuscular blocking dose
[5] = Oryctolagus cuniculus, read-out: ED50
[6] = at 80-85% neuromuscular blocking dose

Compound	ΔBP (change in arterial blood pressure) (rabbits; in vivo) [%]	ΔH (change in heart rate) (rabbits; in vivo) [%]	ED50 (rabbits) [mg/kg]	RI (recovery index) (rabbits) [min]	Onset (rabbits) [min]	VB (vagal block) ([1]; rat, in vivo) [%]	ΔBP (change in arterial blood pressure) ([1]; rat, in vivo) [%]	ΔH (change in heart rate) ([1]; rat, in vivo) [%]	ED50 [1, 3] [mg/kg]	RI (recovery index) ([1]; rat) [min]	Onset ([1]; rat) [min]	VB (vagal block) [1, 4] [%]	ΔBP (change in arterial blood pressure) [1, 4] [%]	ΔH (change in heart rate) [1, 4] [%]	RI (recovery index) [2] [min]	Onset [2] [min]	VB (vagal block) ([2]; in vivo) [%]	ΔBP (change in arterial blood pressure) ([2]; in vivo) [%]	ΔH (change in heart rate) ([2]; in vivo) [%]	ED50 [2] [mg/kg]	further results
COc1cc(C[N+]23CCC(CC2)C(OC(=O)[C@@H]2[C@@H](C(=O)OC4C[N+]5(Cc6ccc(OC(C)=O)c(OC)c6)CCC4CC5)[C@H]4C=C[C@@H]2C4)C3)ccc1OC(C)=O.[Br-].[Br-] (relative stereo) [bis[N-(4-acetoxy-3-methoxybenzyl)quinuclidinium-3-yl]trans-3,6-endomethylene-1,2,3,6-tetrahydrophthalate dibromide]	0	0	0.115	4.5	2.8	70	−10	−5	2	3	1.8	–	–	–	–	–	–	–	–	–	–
COc1ccc(OC)c(C[N+]2(C)C3CCC2CC(OC(=O)C2C4C=CC(C4)C2C(=O)OC2CC4CCC(C2)[N+]4(C)Cc2cc(OC)ccc2OC)C3)c1.[Br-].[Br-] (stereo not drawn) [bis[N-(2,5-dimethoxybenzyl)tropanium-3α-yl]trans-3,6-endomethylene-1,2,3,6-tetrahydrophthalate dibromide]	0	0	0.01	9	4	–	–	–	0.057	1.9	1	32	0	0	–	–	–	–	–	–	–
COc1cc(C[N+]2(C)[C@@H]3CC[C@H]2C[C@@H](OC(=O)CCCCCCCCCC(=O)O[C@H]2C[C@H]4CC[C@@H](C2)[N+]4(C)Cc2cc(OC)c(OC)c(OC)c2)C3)cc(OC)c1OC.[Br-].[Br-] (stereo partly drawn) [bis[N-(3,4,5-trimethoxybenzyl)tropanium-3α-yl]1,9-nonanedicarboxylate dibromide]	–	–	–	2.5	1.3	–	–	–	–	1.8	0.8	10	0	0	2.4	1.5	–	–	–	–	ED50 (rabbits; [5]): 0.07 mg/kg; ΔBP (change in arterial blood pressure) (rabbits; [6]): 0%; ΔH (change in heart rate) (rabbits; [6]): 0%; ED50 ([1]; Rattus norvegicus, iv): 0.18 mg/kg; ED50 ([2]; Sus scrofa, read-out: ED50): 0.31 mg/kg; VB (vagal block) [2, 6]: 40%; ΔBP (change in arterial blood pressure) [2, 6]: 0%; ΔH (change in heart rate) [2, 6]: 0%
CC(=O)Oc1ccc(C[N+]2(C)C3CCC2CC(OC(=O)C2C4C=CC(C4)C2C(=O)OC2CC4CCC(C2)[N+]4(C)Cc2ccc(OC(C)=O)c(OC(C)=O)c2)C3)cc1OC(C)=O.[Br-].[Br-] (stereo not drawn) [bis[N-(3,4-diacetoxybenzyl)tropanium-3β-yl]trans-3,6-endomet] [bis[N-(3,4-diacetoxybenzyl)tropanium-3β-yl]trans-3,6-endomethylene-1,2,3,6-tetrahydrophthalate dibromide]	0	0	0.21	0.75	0.8	–	–	–	0.258	0.5	0.68	45	0	0	2	1.1	100	−5	−10	0.16	–
CCC(=O)Oc1ccc(C[N+]2(C)C3CCCC2CC(OC(=O)CCCCC(=O)OC2CC4CCCC(C2)[N+]4(C)Cc2ccc(OC(=O)CC)c(OC(=O)CC)c2)C3)cc1OC(=O)CC.[Br-].[Br-] (stereo not shown) [bis[N-(3,4-dipropionyloxybenzyl)granataninium-3-yl]adipate dibromide]	0	0	0.16	0.5	0.5	0	−4	0	0.32	0.35	0.4	–	–	–	0.4	0.45	43	0	0	0.275	–
CCC(=O)Oc1ccc(C[N+]2(C)C3CCCC2CC(OC(=O)C2CCC2C(=O)OC2CC4CCCC(C2)[N+]4(C)Cc2ccc(OC(=O)CC)c(OC(=O)CC)c2)C3)cc1OC(=O)CC.[Br-].[Br-] (stereo not shown) [bis[N-(3,4-dipropionyloxybenzyl)granataninium-3-yl]cyclobutane-1,2-dicarboxylate dibromide]	0	0	0.225	0.5	0.55	0	0	0	0.155	0.35	0.45	–	–	–	0.4	0.5	18	0	0	0.19	–
CCC(=O)Oc1ccc(C[N+]2(C)C3CCCC2CC(OC(=O)CCCC(=O)OC2CC4CCCC(C2)[N+]4(C)Cc2ccc(OC(=O)CC)c(OC(=O)CC)c2)C3)cc1OC(=O)CC.[Br-].[Br-] (stereo not shown) [bis[N-(3,4-dipropionyloxybenzyl)granataninium-3-yl]glutarate dibromide]	0	0	0.135	0.55	0.7	0	0	0	0.26	0.4	0.55	–	–	–	0.65	0.5	35	0	0	0.23	–
COc1cc(C[N+]2(C)[C@@H]3CC[C@H]2C[C@@H](OC(=O)C2CCC2C(=O)O[C@H]2C[C@H]4CC[C@@H](C2)[N+]4(C)Cc2cc(OC)c(OC(C)=O)c(OC)c2)C3)cc(OC)c1OC(C)=O.[Br-].[Br-] (stereo partly drawn) [bis[N-(4-acetoxy-3,5-dimethoxybenzyl)tropanium-3α-yl]cyclobutane-1,2-dicarboxylate dibromide]	–	–	–	0.55	0.5	–	–	–	–	0.45	0.4	20	0	0	–	–	–	–	–	–	ED50 (rabbits; [5]): 0.298 mg/kg; ΔBP (change in arterial blood pressure) (rabbits; [6]): 0%; ΔH (change in heart rate) (rabbits; [6]): 0%; ED50 ([1]; Rattus norvegicus, iv): 0.367 mg/kg
